Reference: patent US9315491B2 (DEVELOPMENT CENTER FOR BIOTECHNOLOGY, priority 2009, dated 2016)

Target: recombinant mTOR (Homo sapiens (Human), UniProt P42345)
Assay: mTOR kinase assay (33P incorporation into 4EBP1)
Format: biochemical
Details: compound at 10 μM, 10 μM ATP
Method: The activity of the compound against mTOR was examined by measuring the incorporation of ^33P from [γ-^33P]-ATP into 4EBP1. His-tagged, recombinant human 4EBP1 was expressed in E. coli, purified by nickel-nitrilotriacetic acid (Ni-NTA) resins, and stored at −80° C. Phosphorylation of 4EBP1 by mTOR was assayed in the presence or absence of the compound and performed in a final volume of 25 μl reaction buffer containing 300 ng 4EBP1, 50 ng recombinant mTOR (Invitrogen), 50 mM HEPES (pH 7.5), 1 mM EGTA, 0.01% Polysorbate 20, 10 mM MnCl2, 2.5 mM DTT, 10 μM ATP, and 0.5 μCi [γ-33P]-ATP (PerkinElmir) for 30 min at 30° C. The reactions were terminated by adding 3% phosphoric acid. The ^33P labeled 4EBP1 was transferred onto UniFilter-96 GF/B plate (PerkinElmer) and quantified by Top Count Microplate Scintillation Counter (PerkinElmer). For primary screening of kinase activity inhibition, each test compound was evaluated at […] in duplicate. […] The IC50 values of the compounds were determined after carrying out assays at eight serially diluted concentrations of each compound in duplicate. The results were analyzed using linear regression software (GraphPad Prism 5; GraphPad Software Inc.).
IC50 value is defined as the concentration of the test compound which achieves a half-maximal inhibition of the kinase activity.

recombinant mTOR, sequence (P42345 1360-2549): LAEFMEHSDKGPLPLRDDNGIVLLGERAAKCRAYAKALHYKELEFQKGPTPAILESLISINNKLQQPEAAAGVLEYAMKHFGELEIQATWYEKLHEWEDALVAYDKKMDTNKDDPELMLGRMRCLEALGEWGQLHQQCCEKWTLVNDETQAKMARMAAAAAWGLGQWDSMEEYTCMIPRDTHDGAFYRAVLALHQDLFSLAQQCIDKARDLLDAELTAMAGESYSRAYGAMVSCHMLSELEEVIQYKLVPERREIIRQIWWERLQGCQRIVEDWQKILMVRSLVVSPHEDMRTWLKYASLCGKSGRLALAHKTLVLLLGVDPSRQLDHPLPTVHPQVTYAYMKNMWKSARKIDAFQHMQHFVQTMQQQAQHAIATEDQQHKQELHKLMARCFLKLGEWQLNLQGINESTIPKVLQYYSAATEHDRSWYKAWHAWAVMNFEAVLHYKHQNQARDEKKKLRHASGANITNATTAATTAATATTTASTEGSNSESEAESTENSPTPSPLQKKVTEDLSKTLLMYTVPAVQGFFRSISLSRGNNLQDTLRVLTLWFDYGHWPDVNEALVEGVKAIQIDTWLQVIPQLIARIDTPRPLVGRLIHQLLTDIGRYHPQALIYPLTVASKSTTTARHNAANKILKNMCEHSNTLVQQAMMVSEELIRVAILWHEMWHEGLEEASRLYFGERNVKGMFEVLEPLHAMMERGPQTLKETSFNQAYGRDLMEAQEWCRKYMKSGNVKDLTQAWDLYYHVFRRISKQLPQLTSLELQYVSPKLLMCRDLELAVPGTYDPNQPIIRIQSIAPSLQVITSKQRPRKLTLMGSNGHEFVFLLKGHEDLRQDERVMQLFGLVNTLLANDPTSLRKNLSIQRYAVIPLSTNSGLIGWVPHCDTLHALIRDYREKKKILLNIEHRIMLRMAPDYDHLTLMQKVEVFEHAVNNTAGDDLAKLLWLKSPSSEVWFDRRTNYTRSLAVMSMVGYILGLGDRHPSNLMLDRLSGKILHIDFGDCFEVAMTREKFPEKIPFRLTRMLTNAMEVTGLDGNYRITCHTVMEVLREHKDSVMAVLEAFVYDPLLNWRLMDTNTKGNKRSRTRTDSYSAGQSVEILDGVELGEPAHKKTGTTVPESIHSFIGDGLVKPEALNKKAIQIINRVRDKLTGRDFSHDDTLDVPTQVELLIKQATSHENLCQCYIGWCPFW

inhibition at 10 µM	SMILES
89%	COc1cnc(-c2ccc(NC(=S)Nc3ccc(F)cc3)cc2)nc1N1CCOCC1
98%	CCOC(=O)c1nc(-c2cccc(O)c2)nc(N2CCOCC2)c1OCC [MTR-0037, 5-Ethoxy-2-(3-hydroxy-phenyl)-6-morpholin-4-yl-pyrimidine-4-carboxylic acid ethyl ester]
81%	CCOC(=O)c1nc(-c2ccc3[nH]ccc3c2)nc(N2CCOCC2)c1OCC [MTR-0054, 5-Ethoxy-2-(1H-indol-5-yl)-6-morpholin-4-yl-pyrimidine-4-carboxylic acid ethyl ester]
86%	CCOC(=O)c1nc(-c2cccc(O)c2)nc(N2CCOCC2)c1OC [MTR-0073, 2-(3-Hydroxy-phenyl)-5-methoxy-6-morpholin-4-yl-pyrimidine-4-carboxylic acid ethyl ester]
87%	CSc1c(Cl)nc(-c2ccc(NC(=O)Nc3ccc(Cl)nc3)cc2)nc1N1CCOCC1 [MTR-0077, 1-[4-(4-Chloro-5-methylsulfanyl-6-morpholin-4-yl-pyrimidin-2-yl)-phenyl]-3-(6-chloro-pyridin-3-yl)-urea]
83%	CCOC(=O)c1nc(-c2ccc(NC(=O)Nc3ccc(Cl)nc3)cc2)nc(N2CCOCC2)c1OCC [MTR-0079, 2-{4-[3-(6-Chloro-pyridin-3-yl)-ureido]-phenyl}-5-ethoxy-6-morpholin-4-yl-pyrimidine-4-carboxylic acid ethyl ester]
86%	CSc1c(Cl)nc(-c2ccc(O)cc2)nc1N1CCOCC1 [MTR-0098, 4-(4-Chloro-5-methylsulfanyl-6-morpholin-4-yl-pyrimidin-2-yl)-phenol]
81%	CCOC(=O)c1nc(-c2ccc(NC(=S)Nc3ccccc3)cc2)nc(N2CCOCC2)c1OCC [MTR-0102, 5-Ethoxy-6-morpholin-4-yl-2-[4-(3-phenyl-thioureido)-phenyl]-pyrimidine-4-carboxylic acid ethyl ester]
81%	COc1cnc(-c2cccc(O)c2)nc1N1CCOCC1 [MTR-0116, 3-(5-Methoxy-4-morpholin-4-yl-pyrimidin-2-yl)-phenol]
94%	CCOc1c(C(=O)O)nc(-c2ccc(NC(=O)Nc3ccccc3)cc2)nc1N1CCOCC1 [MTR-0118, 5-Ethoxy-6-morpholin-4-yl-2-[4-(3-phenyl-ureido)-phenyl]-pyrimidine-4-carboxylic acid]
98%	CCOc1c(C(=O)N(CC)CC)nc(-c2ccc(NC(=O)Nc3ccccc3)cc2)nc1N1CCOCC1 [MTR-0120, 5-Ethoxy-6-morpholin-4-yl-2-[4-(3-phenyl-ureido)-phenyl]-pyrimidine-4-carboxylic acid diethylamide]
94%	CCOC(=O)c1nc(-c2ccc(NC(N)=O)cc2)nc(N2CCOCC2)c1OCC [MTR-0121, 5-Ethoxy-6-morpholin-4-yl-2-(4-ureido-phenyl)-pyrimidine-4-carboxylic acid ethyl ester]
91%	CSc1c(Cl)nc(-c2ccc(NC(=O)Nc3ccc(N(C)C)cc3)cc2)nc1N1CCOCC1 [MTR-0123, 1-[4-(4-Chloro-5-methylsulfanyl-6-morpholin-4-yl-pyrimidin-2-yl)-phenyl]-3-(4-dimethylamino-phenyl)-urea]
96%	CCOc1c(C(N)=O)nc(-c2ccc(NC(=O)Nc3ccccc3)cc2)nc1N1CCOCC1 [MTR-0125, 5-Ethoxy-6-morpholin-4-yl-2-[4-(3-phenyl-ureido)-phenyl]-pyrimidine-4-carboxylic acid amide]
96%	CCNC(=O)Nc1ccc(-c2ncc(OC)c(N3CCOCC3)n2)cc1 [MTR-0129, 1-Ethyl-3-[4-(5-methoxy-4-morpholin-4-yl-pyrimidin-2-yl)-phenyl]-urea]
84%	CSc1c(Cl)nc(-c2ccc(NC(=O)Nc3cccc(F)c3)cc2)nc1N1CCOCC1 [MTR-0137, 1-[4-(4-Chloro-5-methylsulfanyl-6-morpholin-4-yl-pyrimidin-2-yl)-phenyl]-3-(3-fluoro-phenyl)-urea]
85%	CCOc1c(C(=O)NCCN2CCOCC2)nc(-c2ccc(NC(=O)Nc3ccccc3)cc2)nc1N1CCOCC1 [MTR-0139, 5-Ethoxy-6-morpholin-4-yl-2-[4-(3-phenyl-ureido)-phenyl]-pyrimidine-4-carboxylic acid (2-morpholin-4-yl-ethyl)-amide]
96%	CCOc1c(C(=O)N2CCCC2)nc(-c2ccc(NC(=O)Nc3ccccc3)cc2)nc1N1CCOCC1 [MTR-0141, 1-{4-[5-Ethoxy-4-morpholin-4-yl-6-(pyrrolidine-1-carbonyl)-pyrimidin-2-yl]-phenyl}-3-phenyl-urea]
93%	CCOC(=O)c1nc(-c2ccc(NC(=O)Nc3ccc(F)cc3)cc2)nc(N2CCOCC2)c1OCC [MTR-0149, 5-Ethoxy-2-{4-[3-(4-fluoro-phenyl)-ureido]-phenyl}-6-morpholin-4-yl-pyrimidine-4-carboxylic acid ethyl ester]
87%	CCOC(=O)c1nc(-c2ccc(NC(=O)Nc3ccc(F)c(F)c3)cc2)nc(N2CCOCC2)c1OCC [MTR-0150, 2-{4-[3-(3,4-Difluoro-phenyl)-ureido]-phenyl}-5-ethoxy-6-morpholin-4-yl-pyrimidine-4-carboxylic acid ethyl ester]
97%	CCNC(=O)Nc1ccc(-c2ncc(SC)c(N3CCOCC3)n2)cc1 [MTR-0159, 1-Ethyl-3-[4-(5-methylsulfanyl-4-morpholin-4-yl-pyrimidin-2-yl)-phenyl]-urea]
86%	CCOc1c(CN2CCN(C)CC2)nc(-c2ccc(NC(=O)Nc3ccccc3)cc2)nc1N1CCOCC1 [MTR-0172, 1-{4-[5-Ethoxy-4-(4-methyl-piperazin-1-ylmethyl)-6-morpholin-4-yl-pyrimidin-2-yl]-phenyl}-3-phenyl-urea]
84%	CSc1cnc(-c2ccc(NC(=O)Nc3ccc(F)c(F)c3)cc2)nc1N1CCOCC1 [MTR-0177, 1-(3,4-Difluoro-phenyl)-3-[4-(5-methylsulfanyl-4-morpholin-4-yl-pyrimidin-2-yl)-phenyl]-urea]
95%	COc1c(C(=O)O)nc(-c2ccc(NC(=O)Nc3ccccc3)cc2)nc1N1CCOCC1 [MTR-0183, 5-Methoxy-6-morpholin-4-yl-2-[4-(3-phenyl-ureido)-phenyl]-pyrimidine-4-carboxylic acid]
96%	CCOc1c(C(=O)N2CCN(C)CC2)nc(-c2ccc(NC(=O)Nc3ccccc3)cc2)nc1N1CCOCC1 [MTR-0186, 1-{4-[5-Ethoxy-4-(4-methyl-piperazine-1-carbonyl)-6-morpholin-4-yl-pyrimidin-2-yl]-phenyl}-3-phenyl-urea]
81%	CCOc1c(CN2CCCCC2)nc(-c2ccc(NC(=O)Nc3ccccc3)cc2)nc1N1CCOCC1 [MTR-0193, 1-[4-(5-Ethoxy-4-morpholin-4-yl-6-piperidin-1-ylmethyl-pyrimidin-2-yl)-phenyl]-3-phenyl-urea]
87%	CSc1c(Cl)nc(-c2ccc(NC(=O)NCCN3CCOCC3)cc2)nc1N1CCOCC1 [MTR-0198, 1-[4-(4-Chloro-5-methylsulfanyl-6-morpholin-4-yl-pyrimidin-2-yl)-phenyl]-3-(2-morpholin-4-yl-ethyl)-urea]

SMILES	inhibition at 10 µM
CSc1c(Cl)nc(-c2ccc(NC(=O)NCCCl)cc2)nc1N1CCOCC1 [MTR-0108, 1-(2-Chloro-ethyl)-3-[4-(4-chloro-5-methylsulfanyl-6-morpholin-4-yl-pyrimidin-2-yl)-phenyl]-urea]	89%
